Measurements reported in patent US20100210649A1, “PYRIDAZINONES AND FURAN-CONTAINING COMPOUNDS” (Sloan-Kettering Institute for Cancer Research, priority 2006, published 2010).
pIC50: −log10 of the molar value. Several values for one entry are separate records, joined by “and”; a condition that tells them apart may be missing. Equal values may be shown once. Read-outs that look alike come from different tables or passages of the source.

Assays:
[1] = test system: H1650; test: Non Small Cell Lung Cancer proliferation assay (Alamar Blue reduction), H1650; format: cell-based, human; details: Homo sapiens; for pIC50: NCI-H1650, 48 h, H1650, 12 point doubling dilution 10 uM to 5 nM, 48 h treatment, alamar blue additional 48 h, read-out: IC50 H1650; for inhibition at 10 µM: NCI-H1650, primary screening, 10 μM compound in 1% DMSO (v/v), read-out: percentage inhibition H1650; for IC50: NCI-H1650, dose response 10 M to 5 nM, read-out: Dose Response (uM) H1650
Summary of the method: (§1)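 Dose-response run: cells were counted, dispensed at 250 cells/well onto compound, incubated 48 hours at 37° C, then incubated with Alamar Blue for an additional 48 hours before fluorescence measurement. All wells held 1% DMSO final.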

[2] = test system: H2030; test: Non Small Cell Lung Cancer proliferation assay (Alamar Blue reduction), H2030; format: cell-based, human; details: Homo sapiens; for pIC50: NCI-H2030, 48 h, H2030, 12 point doubling dilution 10 uM to 5 nM, 48 h treatment, alamar blue additional 48 h, read-out: IC50 H2030; for inhibition at 10 µM: NCI-H2030, primary screening, 10 μM compound in 1% DMSO (v/v), read-out: percentage inhibition H2030; for IC50: NCI-H2030, dose response 10 M to 5 nM, read-out: Dose Response (uM) H2030
Summary of the method: as §1

[3] = test system: H3255; test: Non Small Cell Lung Cancer proliferation assay (Alamar Blue reduction), H3255; format: cell-based, human; details: for pIC50: NCI-H3255, 48 h, H3255, 12 point doubling dilution 10 uM to 5 nM, 48 h treatment, alamar blue additional 48 h, read-out: IC50 H3255; for inhibition at 10 µM: NCI-H3255, primary screening, 10 μM compound in 1% DMSO (v/v), read-out: percentage inhibition H3255; for IC50: read-out: Dose Response (uM) H3255
Summary of the method: as §1

[4] = test system: H358; test: Non Small Cell Lung Cancer proliferation assay (Alamar Blue reduction), H358; format: cell-based; details: Homo sapiens; for pIC50: H358, 12 point doubling dilution 10 uM to 5 nM, 48 h treatment, alamar blue additional 48 h, read-out: IC50 H358; for IC50: read-out: Dose Response (uM) H358
Summary of the method: as §1

[5] = test system: H1734; test: Non Small Cell Lung Cancer proliferation assay (Alamar Blue reduction), H1734; format: cell-based, human; details: for pIC50: H1734, 12 point doubling dilution 10 uM to 5 nM, 48 h treatment, alamar blue additional 48 h, read-out: IC50 H1734; for IC50: read-out: Dose Response (uM) H1734
Summary of the method: as §1

[6] = test system: HPL1D (human peripheral lung epithelial) cell line; test: Cell proliferation / dose response (Alamar Blue), HPL1D; format: cell-based; details: read-out: IC50 HPL1D
Method: WI-38: human lung fibroblast cell line. […] WT: wildtype; WT*: over-expressed wildtype. Dose response studies against 34 compounds from the pyridazinone and phenylfuran-carboxamide class were conducted. […] In addition, Tarceva was included in these dose response studies. The dose response studies were done with the following standard procedure. […] The cells were incubated for 48 hours at 37 C to complete treatment, and then alamar blue was added for an additional 48 hours. Finally, alamar blue reduction was measured and the data was loaded into ORIS, our data screening acquisition platform.

[7] = test system: H820; test: Dose response study (Alamar Blue), H820; format: cell-based; details: Homo sapiens, read-out: IC50 H820
Method: (§2) Dose response studies against 34 compounds from the pyridazinone and phenylfuran-carboxamide class were conducted. […] In addition, Tarceva was included in these dose response studies.
(§3) The dose response studies were done with the following standard procedure. First, the cells were counted and dispensed at 250 cells/well into 384-well microplates with compound. The cells were incubated for 48 hours at 37 C to complete treatment, and then alamar blue was added for an additional 48 hours. Finally, alamar blue reduction was measured and the data was loaded into ORIS, our data screening acquisition platform.

[8] = test system: PC9; test: Dose response study (Alamar Blue), PC9; format: cell-based; details: Homo sapiens, read-out: IC50 PC9
Method: as §2, §3

[9] = test system: A549; test: Dose response study (Alamar Blue), A549; format: cell-based; details: Homo sapiens, read-out: IC50 A549
Method: as §2, §3

[10] = test system: H23; test: Dose response study (Alamar Blue), H23; format: cell-based; details: Homo sapiens, read-out: IC50 H23
Method: as §2, §3

[11] = test system: H460; test: Dose response study (Alamar Blue), H460; format: cell-based; details: Homo sapiens, read-out: IC50 H460
Method: as §2, §3

[12] = test system: H2122; test: Dose response study (Alamar Blue), H2122; format: cell-based; details: Homo sapiens, read-out: IC50 H2122
Method: as §2, §3

[13] = test system: H2444; test: Dose response study (Alamar Blue), H2444; format: cell-based; details: Homo sapiens, read-out: IC50 H2444
Method: as §2, §3

[14] = Homo sapiens, NCI-H1734, dose response 10 M to 5 nM, IC50
[15] = Homo sapiens, NCI-H3255, dose response 10 M to 5 nM
[16] = HPL1D, 12 point doubling dilution 10 uM to 5 nM, 48 h treatment, alamar blue additional 48 h
[17] = NCI-H820, H820, 12 point doubling dilution 10 uM to 5 nM, 48 h treatment, alamar blue additional 48 h
[18] = PC-9, PC9, 12 point doubling dilution 10 uM to 5 nM, 48 h treatment, alamar blue additional 48 h
[19] = A549, 12 point doubling dilution 10 uM to 5 nM, 48 h treatment, alamar blue additional 48 h
[20] = NCI-H23, H23, 12 point doubling dilution 10 uM to 5 nM, 48 h treatment, alamar blue additional 48 h
[21] = NCI-H460, H460, 12 point doubling dilution 10 uM to 5 nM, 48 h treatment, alamar blue additional 48 h
[22] = NCI-H2122, H2122, 12 point doubling dilution 10 uM to 5 nM, 48 h treatment, alamar blue additional 48 h
[23] = NCI-H2444, H2444, 12 point doubling dilution 10 uM to 5 nM, 48 h treatment, alamar blue additional 48 h

SMILES | pIC50 [1] | pIC50 [2] | pIC50 ([3]; Homo sapiens) | IC50 [1] [µM] | IC50 [2] [µM] | IC50 [3, 15] [µM] | pIC50 ([4]; NCI-H358) | IC50 ([4]; NCI-H358) [µM] | pIC50 ([5]; Homo sapiens, NCI-H1734) | IC50 ([5]; Homo sapiens, NCI-H1734) [µM] | pIC50 [7, 17] | pIC50 [8, 18] | pIC50 [9, 19] | pIC50 [11, 21] | pIC50 [12, 22] | pIC50 [13, 23] | inhibition at 10 µM [1] [%] | inhibition at 10 µM [2] [%] | pIC50 [6, 16] | pIC50 [10, 20] | also measured
Cc1cccc(-n2ncc(Cl)c(Cl)c2=O)c1 [compound 104122, 4,5-dichloro-2-m-tolyl-2H-pyridazin-3-one] | 5.85 | 6.54 | 6.06 | – | – | – | – | – | – | – | – | – | – | – | – | – | 48 | 101 | – | – | inhibition at 10 µM ([3]; Homo sapiens): 98%; IC50 ([3]; dose response 10 M to 5 nM): 0.38 µM; pIC50 ([4]; NCI-H358, 48 h): 6.39; pIC50 ([5]; Homo sapiens, NCI-H1734, 48 h): 5.67; IC50 [5, 14]: 2.17 µM; IC50 ([5]; dose response 10 M to 5 nM, IC50): 1.17 µM and 2.21 µM and 1.73 µM; pIC50 ([6]; 48 h): 6.55; pIC50 ([7]; NCI-H820, 48 h): 6.74; pIC50 ([8]; PC-9, 48 h): 6.19; pIC50 ([9]; A549, 48 h): 5.84; pIC50 ([10]; NCI-H23, 48 h): 6.68; pIC50 ([11]; NCI-H460, 48 h): 5.81; pIC50 ([12]; NCI-H2122, 48 h): 5.94; pIC50 ([13]; NCI-H2444, 48 h): 6.62
O=c1c(Cl)c(Cl)cnn1-c1ccccc1 [compound 257014] | 5.79 | 6.39 | 5.82 | 3.18 | 0.55 | 1.36 | – | – | – | – | – | – | – | – | – | – | – | – | – | – | pIC50 ([4]; NCI-H358, 48 h): 6.17; IC50 ([4]; NCI-H358, dose response 10 M to 5 nM, IC50): 0.31 µM; pIC50 ([5]; Homo sapiens, NCI-H1734, 48 h): 5.64; IC50 [5, 14]: 4.11 µM; pIC50 ([6]; 48 h): 6.42; pIC50 ([7]; NCI-H820, 48 h): 6.62; pIC50 ([8]; PC-9, 48 h): 6.08; pIC50 ([9]; A549, 48 h): 5.77; pIC50 ([10]; NCI-H23, 48 h): 6.59; pIC50 ([11]; NCI-H460, 48 h): 5.70; pIC50 ([12]; NCI-H2122, 48 h): 5.94; pIC50 ([13]; NCI-H2444, 48 h): 6.47

Now from value to molecule, other results behind:

pIC50 [1] | pIC50 [2] | pIC50 ([3]; Homo sapiens) | IC50 [1] [µM] | IC50 [2] [µM] | IC50 [3, 15] [µM] | pIC50 ([4]; NCI-H358) | IC50 ([4]; NCI-H358) [µM] | pIC50 ([5]; Homo sapiens, NCI-H1734) | IC50 ([5]; Homo sapiens, NCI-H1734) [µM] | pIC50 [7, 17] | pIC50 [8, 18] | pIC50 [9, 19] | pIC50 [11, 21] | pIC50 [12, 22] | pIC50 [13, 23] | SMILES | inhibition at 10 µM [1] [%] | inhibition at 10 µM [2] [%] | pIC50 [6, 16] | pIC50 [10, 20] | also measured
6.10 | 6.49 | 6.18 | 1.44 | 0.34 | 0.73 | 6.49 | 0.12 | 5.91 | 0.61 | 6.55 | 6.05 | 5.92 | 5.90 | 5.82 | 6.68 | O=c1c(Cl)c(Cl)cnn1-c1cccc(C(F)(F)F)c1 [compound 176729] | 100 | -3 | 6.60 | 6.64 | inhibition at 10 µM ([3]; Homo sapiens): 115%
6.04 | 6.51 | 6.12 | 1.14 | 0.39 | 0.62 | 6.37 | 0.16 | 5.79 | 0.87 | 6.66 | 6.15 | 5.92 | 5.89 | 5.90 | 6.52 | O=c1c(Br)c(Br)cnn1-c1ccccc1 [compound 257015] | – | – | 6.52 | 6.64 | –
5.60 | 6.29 | 5.82 | 2.73 | 0.65 | 1.32 | 6.11 | 0.35 | 5.49 | 3.37 | 6.43 | 5.95 | 5.58 | 5.59 | 5.68 | 6.39 | Cc1ccc(-n2ncc(Cl)c(Cl)c2=O)cc1 [compound 257016] | – | – | 6.32 | 6.49 | –
